Data reported in ChEMBL document CHEMBL1201862, “PubChem BioAssay data set” (2004).
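48-hour exposure; five concentrations; linearly interpolated endpoints. GI50 is the concentration that inhibits growth by half.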 Active and inactive are the calls of the source. No stated cut-off is given here; in the data, active = GI50 up to about 1.1 µM and inactive = higher.

What was measured:
Test in all cases: DTP human tumour cell line panel, 48 h
786-0 = tested on: 786-0
A549 = tested on: A549
ACHN = tested on: ACHN
CAKI-1 = tested on: CAKI-1
COLO 205 = tested on: COLO 205
HT-29 = tested on: HT-29
IGROV-1 = tested on: IGROV-1
MCF7 = tested on: MCF7
MDA-MB-231 = tested on: MDA-MB-231
MOLT-4 = tested on: MOLT-4
NCI/ADR-RES = tested on: NCI/ADR-RES
OVCAR-3 = tested on: OVCAR-3
OVCAR-5 = tested on: OVCAR-5
RPMI-8226 = tested on: RPMI-8226
SK-MEL-28 = tested on: SK-MEL-28
SN12C = tested on: SN12C
TK-10 = tested on: TK-10
UO-31 = tested on: UO-31
SK-MEL-2 = tested on: SK-MEL-2
T47D = tested on: T47D

Row | SMILES | GI50 (786-0) | GI50 (A549) | GI50 (ACHN) | GI50 (CAKI-1) | GI50 (COLO 205) | GI50 (HT-29) | GI50 (IGROV-1) | GI50 (MCF7) | GI50 (MDA-MB-231) | GI50 (MOLT-4) | GI50 (NCI/ADR-RES) | GI50 (OVCAR-3) | GI50 (OVCAR-5) | GI50 (RPMI-8226) | GI50 (SK-MEL-28) | GI50 (SN12C) | GI50 (TK-10) | GI50 (UO-31) | GI50 (SK-MEL-2) | GI50 (T47D)
1 | O=C(NCc1ccccc1)c1c(O)nc2ccccc2c1O | > 100 µM (inactive) | > 100 µM (inactive) | > 100 µM (inactive) | > 100 µM (inactive) | > 100 µM (inactive) | > 100 µM (inactive) | > 100 µM (inactive) | > 100 µM (inactive) | > 100 µM (inactive) | > 100 µM (inactive) | > 100 µM (inactive) | > 100 µM (inactive) | > 100 µM (inactive) | > 100 µM (inactive) | > 100 µM (inactive) | > 100 µM (inactive) | > 100 µM (inactive) | > 100 µM (inactive) | – | –
2 | Cc1ccc(-c2c(C#N)c(N)[nH]c(=S)c2C#N)cc1 | 26.1 µM (inactive) | 58.5 µM (inactive) | 79.3 µM (inactive) | 49.8 µM (inactive) | 24 µM (inactive) | 48.2 µM (inactive) | 43.3 µM (inactive) | 32 µM (inactive) | 34.8 µM (inactive) | 16.6 µM (inactive) | 31.7 µM (inactive) | 35.2 µM (inactive) | > 100 µM (inactive) | 17.7 µM (inactive) | 26.2 µM (inactive) | 22.3 µM (inactive) | 73.6 µM (inactive) | 40.3 µM (inactive) | 25.2 µM (inactive) | –
3 | COc1ccc2oc(=O)c(-c3csc(-c4ccccc4)n3)cc2c1 | 17.9 µM (inactive) | 64.7 µM (inactive) | 32 µM (inactive) | > 100 µM (inactive) | > 100 µM (inactive) | 55.1 µM (inactive) | 32.6 µM (inactive) | 94.6 µM (inactive) | 43.4 µM (inactive) | > 100 µM (inactive) | – | – | > 100 µM (inactive) | 87.3 µM (inactive) | > 100 µM (inactive) | – | 22.9 µM (inactive) | 24 µM (inactive) | > 100 µM (inactive) | > 100 µM (inactive)
4 | COC(=O)C(=O)C(C(=O)C(=O)Nc1cccc([N+](=O)[O-])c1)c1nc2ccc(Cl)cc2nc1O (configuration not stated) | > 100 µM (inactive) | > 100 µM (inactive) | > 100 µM (inactive) | 95.7 µM (inactive) | > 100 µM (inactive) | > 100 µM (inactive) | > 100 µM (inactive) | > 100 µM (inactive) | 65.3 µM (inactive) | > 100 µM (inactive) | > 100 µM (inactive) | > 100 µM (inactive) | > 100 µM (inactive) | – | > 100 µM (inactive) | > 100 µM (inactive) | > 100 µM (inactive) | 36.7 µM (inactive) | > 100 µM (inactive) | –
5 | Cn1c(=O)c(C(=O)Nc2nc(C34CC5CC(CC(C5)C3)C4)cs2)c(O)c2ccccc21 | 36.7 µM (inactive) | 79.8 µM (inactive) | 24.3 µM (inactive) | 73.5 µM (inactive) | > 100 µM (inactive) | > 100 µM (inactive) | 77.3 µM (inactive) | > 100 µM (inactive) | 70 µM (inactive) | > 10 µM (inactive) | 13.2 µM (inactive) | > 100 µM (inactive) | > 100 µM (inactive) | > 100 µM (inactive) | > 100 µM (inactive) | > 100 µM (inactive) | 25.1 µM (inactive) | > 100 µM (inactive) | – | –
6 | O=S(=O)(c1ccccc1)c1cccc2c1NCCC2 | 78.7 µM (inactive) | 33.3 µM (inactive) | 58.9 µM (inactive) | 27.9 µM (inactive) | > 10 µM (inactive) | 37.8 µM (inactive) | 52.5 µM (inactive) | 40.8 µM (inactive) | 39.6 µM (inactive) | 28.7 µM (inactive) | 38.5 µM (inactive) | 50.7 µM (inactive) | > 100 µM (inactive) | 56.1 µM (inactive) | 36.7 µM (inactive) | 42.7 µM (inactive) | 64.9 µM (inactive) | 27.5 µM (inactive) | > 10 µM (inactive) | –
7 | COC(=O)c1sc(C(=O)OC)c2c1CSC2 | 53.6 µM (inactive) | > 100 µM (inactive) | > 100 µM (inactive) | > 93.5 µM (inactive) | > 100 µM (inactive) | > 100 µM (inactive) | > 100 µM (inactive) | > 100 µM (inactive) | > 100 µM (inactive) | > 100 µM (inactive) | > 100 µM (inactive) | > 100 µM (inactive) | > 100 µM (inactive) | > 100 µM (inactive) | > 100 µM (inactive) | > 100 µM (inactive) | > 100 µM (inactive) | > 100 µM (inactive) | 55.8 µM (inactive) | –
8 | CCOC(=O)Cn1c(=O)c2nc(SC)sc2n(-c2ccccc2)c1=O | > 100 µM (inactive) | > 100 µM (inactive) | > 100 µM (inactive) | – | > 100 µM (inactive) | > 100 µM (inactive) | > 100 µM (inactive) | > 100 µM (inactive) | > 100 µM (inactive) | > 100 µM (inactive) | – | – | > 100 µM (inactive) | > 100 µM (inactive) | > 100 µM (inactive) | > 100 µM (inactive) | > 100 µM (inactive) | > 100 µM (inactive) | > 100 µM (inactive) | –
9 | O=C1C=C(Nc2ccccc2C(=O)CC(=O)C(=O)Nc2cccc([N+](=O)[O-])c2)c2ccccc2C1=O | 29.4 µM (inactive) | 83.9 µM (inactive) | > 100 µM (inactive) | > 100 µM (inactive) | > 100 µM (inactive) | > 100 µM (inactive) | 80.4 µM (inactive) | – | – | 4.28 µM (inactive) | – | 14.2 µM (inactive) | > 100 µM (inactive) | 5.58 µM (inactive) | 46 µM (inactive) | 23.4 µM (inactive) | > 100 µM (inactive) | 34.9 µM (inactive) | 56 µM (inactive) | –
10 | Cc1nc(C(N)=S)sc1C(=O)/C=C/c1cccc(O)c1 | > 100 µM (inactive) | > 100 µM (inactive) | 56.6 µM (inactive) | > 100 µM (inactive) | > 100 µM (inactive) | > 100 µM (inactive) | > 100 µM (inactive) | – | – | 21.9 µM (inactive) | – | > 100 µM (inactive) | > 100 µM (inactive) | 25.9 µM (inactive) | > 100 µM (inactive) | > 100 µM (inactive) | > 100 µM (inactive) | > 100 µM (inactive) | > 100 µM (inactive) | –
11 | CSc1nc(NC2OC(COC(C)=O)C(OC(C)=O)C(OC(C)=O)C2OC(C)=O)c2c(n1)OCC2=O (configuration not stated) | > 100 µM (inactive) | > 100 µM (inactive) | > 100 µM (inactive) | > 100 µM (inactive) | > 100 µM (inactive) | > 100 µM (inactive) | > 100 µM (inactive) | – | – | > 100 µM (inactive) | – | > 100 µM (inactive) | > 100 µM (inactive) | > 100 µM (inactive) | > 100 µM (inactive) | > 100 µM (inactive) | > 100 µM (inactive) | > 100 µM (inactive) | > 100 µM (inactive) | –
12 | CN(C)c1ccc(/C=N/CC2CCCN3CCCCC23)cc1 (configuration not stated) | > 100 µM (inactive) | > 100 µM (inactive) | > 100 µM (inactive) | > 100 µM (inactive) | 42.7 µM (inactive) | – | > 100 µM (inactive) | > 100 µM (inactive) | > 100 µM (inactive) | – | > 100 µM (inactive) | > 100 µM (inactive) | > 100 µM (inactive) | – | – | – | > 100 µM (inactive) | > 100 µM (inactive) | – | –
13 | FC(F)(F)c1cnc(N/N=C(/c2ccccc2)c2ccccn2)c(Cl)c1 | 4.12 µM (inactive) | 3.53 µM (inactive) | 3.21 µM (inactive) | 5.85 µM (inactive) | 2.51 µM (inactive) | 0.31 µM (active) | 2.83 µM (inactive) | 2.44 µM (inactive) | 5.57 µM (inactive) | 2.67 µM (inactive) | 2.78 µM (inactive) | 3.37 µM (inactive) | 6.87 µM (inactive) | 2.97 µM (inactive) | 11.4 µM (inactive) | 7.52 µM (inactive) | – | 4.94 µM (inactive) | 8.18 µM (inactive) | –
14 | N#CCC(=O)N/N=C(\CCN1CCCC1)CC(c1ccccc1)c1c(O)c2ccccc2oc1=O (configuration not stated) | > 100 µM (inactive) | > 71.9 µM (inactive) | > 60.4 µM (inactive) | > 95.3 µM (inactive) | 25.5 µM (inactive) | > 88.7 µM (inactive) | > 100 µM (inactive) | 20.2 µM (inactive) | 40.3 µM (inactive) | 24.5 µM (inactive) | 56.4 µM (inactive) | 65.3 µM (inactive) | > 100 µM (inactive) | 32.9 µM (inactive) | > 100 µM (inactive) | > 100 µM (inactive) | > 78.9 µM (inactive) | 59.8 µM (inactive) | > 61.1 µM (inactive) | –
15 | c1ccc2[nH]c(CNc3ccc(C4C[Se]N=N4)cc3)nc2c1 (configuration not stated) | > 100 µM (inactive) | > 100 µM (inactive) | > 100 µM (inactive) | > 100 µM (inactive) | 48.6 µM (inactive) | > 100 µM (inactive) | > 100 µM (inactive) | – | – | 9.02 µM (inactive) | – | 21.7 µM (inactive) | > 100 µM (inactive) | 25.6 µM (inactive) | 78.9 µM (inactive) | 86.9 µM (inactive) | > 100 µM (inactive) | 38.9 µM (inactive) | 33 µM (inactive) | –
16 | COC(=O)CCC(=O)NC1c2cccc3cccc(c23)Cn2c(=O)n(C)c(=O)n21 (configuration not stated) | > 100 µM (inactive) | > 100 µM (inactive) | > 100 µM (inactive) | > 100 µM (inactive) | > 100 µM (inactive) | > 100 µM (inactive) | > 100 µM (inactive) | > 100 µM (inactive) | > 100 µM (inactive) | > 100 µM (inactive) | > 100 µM (inactive) | > 100 µM (inactive) | > 100 µM (inactive) | > 100 µM (inactive) | > 100 µM (inactive) | > 100 µM (inactive) | > 100 µM (inactive) | > 100 µM (inactive) | > 100 µM (inactive) | –
